Results: article PMC7984888, “Inhibitory Activity of Pyrroloisoxazolidine Derivatives against Chlamydia trachomatis” (BioMed Research International, 2021)

Assays:
[1] = system: Uninfected HeLa cells; experiment: WST-1 cell viability; format: cell-based; conditions: 32 μM, 48 h
Protocol: (§1) Uninfected HeLa cells were cultured with 32 μM (the highest concentration used in antichlamydial analysis) of individual compound or 0.5% DMSO for 48 h. After 10 μL of WST-1 reagent was added, cells were incubated for an additional 1 h, and absorbance at 450 nm was recorded. The viability of compound-treated cells was calculated by the absorbance relative to that of DMSO control setting as 100% [22].

[2] = WST-1 cell viability; format: cell-based; conditions: human, uninfected HeLa cells, WST-1, relative to DMSO control as 100%
Protocol: as §1

[3] = system: C. trachomatis L2; experiment: Withdrawal assay; format: cell-based, Chlamydia trachomatis; conditions: progeny EBs at 36 hpi, compared with 36 hpi sample
Protocol: HeLa cells seeded in 48-well plate were infected with C. trachomatis L2 at an MOI of 0.2 and simultaneously treated with 2, 8, or 32 μM of compound. At 2, 12, 24, and 36 hpi, infected cells were washed twice to remove residual inhibitor, and fresh medium was added. At 36 hpi, the production of infectious progeny EBs and percent inhibition data were determined as above.  Figure 6 Withdrawal assay. (a) HeLa cells infected with C. trachomatis L2 were simultaneously treated with 2, 8, or 32 μM individual compound. The compound was removed at 2, 12, 24, or 36 hpi, and the production of progeny EBs was determined at 36 hpi. (b–d) Percent inhibition of progeny EBs was calculated based on data in compound-treated samples relative to DMSO-treated control. Data are presented as mean ± SD of three independent assays. ∗p < 0.05, ∗∗p < 0.01, compared with each 36 hpi positive control sample by Student's t-tests.

[4] = system: Uninfected HeLa cells; experiment: Host cell cytotoxicity (morphology, nuclear integrity, cell count); format: cell-based; conditions: 48 h, Evans blue, DAPI, cell counting
Protocol: Uninfected HeLa cells were cultured with indicated concentration of individual compound or 0.5% DMSO. Forty-eight hours later, cells were fixed with methanol and stained with Evans blue for morphology or DAPI for nuclear integrity. Otherwise, at 48 h later, cells were detached and enumerated by a hemacytometer.  Figure 2 Lack of cytotoxicity of compounds 1 and 2 on HeLa cells. Uninfected HeLa cells were cultured with medium containing various concentrations of individual compound or 0.5% DMSO for 48 h. (a) The cellular morphology was stained with Evans blue, and cell nucleus was stained with DAPI. (b) The cells were enumerated by a hemacytometer. Data are presented as mean ± SD of three independent assays.

[5] = system: C. trachomatis L2; experiment: Period incubation assay; format: cell-based, Chlamydia trachomatis; conditions: progeny EBs at 36 hpi; for Inhibitory effect, treated at 0-2 h: 32 μM, 0-2 h period; for Production of infectious progenies, compound added during the 12-24 h period: 2, 8 or 32 μM
Protocol: HeLa cells seeded in 48-well plate were infected with C. trachomatis L2 at an MOI of 0.2 and treated with 2, 8, or 32 μM of compound during 0-2, 2-12, 12-24, and 24-36 h period. At 36 hpi, the production of infectious progeny EBs and percent inhibition data were determined as above.  Figure 7 Period incubation assay. (a) HeLa cells infected with C. trachomatis L2 were treated with 2, 8, or 32 μM individual compound for indicated times. The production of progeny EBs was determined at 36 hpi. (b–d) Percent inhibition of progeny EBs was calculated based on data in compound-treated samples relative to DMSO-treated control. Data are presented as mean ± SD of three independent assays.

[6] = system: Chlamydia trachomatis L2 EBs; experiment: Elementary body pretreatment assay; format: cell-based; conditions: for EB entry efficiency after EB pretreatment for 4 h: 32 μM, 4°C; for EB counts that enter into host cells after EB pretreatment for 1 h: 2, 8 and 32 μM, 37°C and 4°C
Protocol: Chlamydia trachomatis L2 EBs suspended in SPG at 4 x 10^5 IFU/mL were exposed to 2, 8, or 32 μM individual compound at 37°C or 4°C for indicated times. EBs then were washed twice to eliminate the residual chemical and were immediately loaded onto HeLa cell monolayers at an MOI of 0.2. The infective EB count was measured by quantifying inclusion numbers at 36 hpi using immunofluorescence staining as above.  Figure 4 Compounds 1 and 2 weakly attenuated the EB infectivity. Chlamydia trachomatis L2 EBs were incubated with 2, 8, or 32 μM compound 1 (a) or 2 (b) at 37°C or 4°C for 1 or 4 h. After washes, EBs were used to infect HeLa cell. At 36 hpi, the inclusion was counted as described in “Materials and Methods.” Data are presented as mean ± SD of three independent assays. ∗∗p < 0.01, compared 4°C with 37°C by Student's t-tests. ^#p < 0.05, compared with each DMSO control sample by Student's t-tests.

[7] = system: C. trachomatis L2; experiment: Host cell pretreatment assay; format: cell-based, Chlamydia trachomatis; conditions: 2, 8 and 32 μM, 37°C, 1 h (also 4 h) prior to infection
Protocol: Cells seeded in 48-well plate were incubated with 2, 8, or 32 μM individual compound at 37°C for indicated times. After twice washing with SPG to remove residual compound, cells were infected with EBs at an MOI of 0.2. At 36 hpi, the inclusion count in each well was determined by immunofluorescence staining as above.
Chlamydia trachomatis has a unique EB/RB biphasic life cycle, which offers the infection steps and the intracellular proliferation period for therapeutic intervention. To explore whether the compounds affected the chlamydial infection steps, the HeLa cells or EBs were pretreated with compound prior to infection, and then the influence on EB entry efficiency was analyzed by counting inclusion numbers. Due to the relative easier for culture and shorter developmental cycle, C. trachomatis L2 is commonly represented as a laboratory model for C. trachomatis in cell culture research and is picked for our subsequent mechanism study.
Figure 3 Host cells were not involved in the compounds' antichlamydial activity. HeLa cells were incubated with 2, 8, or 32 μM compound 1 (a) or 2 (b) at 37°C for 1 or 4 h. After washes, cells were infected with EBs. At 36 hpi, the inclusion was counted as described in “Materials and Methods.” Data are presented as mean ± SD of three independent assays.

[8] = system: C. trachomatis L2; experiment: Later treatment assay; format: cell-based, Chlamydia trachomatis; conditions: 2, 8 or 32 μM, progeny EBs at 36 hpi, compared with 0 hpi sample
Protocol: HeLa cells seeded in 48-well plate were infected with C. trachomatis L2 at an MOI of 0.2 and were treated with 2, 8, or 32 μM of compound at 0, 2, 12, and 24 hpi. At 36 hpi, cells were collected, and the production of infectious progeny EBs was determined as described above. Percent inhibition was calculated based on progeny EB count in compound-treated samples relative to DMSO-treated negative control.  Figure 5 Later treatment assay. (a) HeLa cells infected with C. trachomatis L2 were treated with 2, 8, or 32 μM individual compound at 0, 2, 12, or 24 hpi. The production of progeny EBs was determined at 36 hpi. (b–d) Percent inhibition of progeny EBs was calculated based on data in compound-treated samples relative to DMSO-treated control. Data are presented as mean ± SD of three independent assays. ∗∗p < 0.01, compared with each 0 hpi positive control sample by Student's t-tests.

SMILES	Effect on host cell viability / proliferation activity by WST-1, in words [1]	viability at 48 h, 32 µM [2]	Inhibitory effect when chemical was removed after 24 hpi [3]	Inhibitory effect when chemical was removed before 12 hpi [3]	Cytotoxic activity on host cells (morphology, nuclear integrity, cell proliferation) [4]	Inhibitory effect, treated at 0-2 h [5]	Production of infectious progenies, compound added during the 12-24 h period [5]	Intracellular chlamydial growth, 2-12 h period treatment [5]	Infectious progeny EBs, 24-36 h period incubation [5]	EB entry efficiency after EB pretreatment for 4 h [6]	EB counts that enter into host cells after EB pretreatment for 1 h [6]	Formation of chlamydial inclusions after pretreatment of HeLa cells [7]	Antichlamydial activity when chemical was added at 24 hpi [8]	Antichlamydial activity when chemical was added before 12 hpi [8]
c1ccc(C2C3CC(c4ccccc4)N(c4ccccc4)C3ON2c2ccccc2)cc1 (stereo not shown) [Compound 1]	did not show cytotoxicity	101%	relatively well preserved	significantly reduced	No substantial cytotoxic activity	weak inhibitory effect	significantly inhibited	partially prevented	partially inhibited	slightly dropped	did not change	did not reduce	dramatically dropped	maintained
Clc1ccc(N2C(c3ccccc3)CC3C(c4ccccc4)N(c4ccccc4)OC32)cc1 (stereo not shown) [Compound 2]	did not show cytotoxicity	98.3%	relatively well preserved	significantly reduced	No substantial cytotoxic activity	weak inhibitory effect	significantly inhibited	partially prevented	partially inhibited	slightly dropped	did not change	did not reduce	dramatically dropped	maintained
